Key:
[1] = biological target: T1, recombinant α1β1γ1 complex with β1 GBD mutations (W100G/W133A and others) (Rattus norvegicus, UniProt P80386, W100G/W133A); assay: recombinant AMPK with GBD point mutations in β1, assayed in immunoprecipitates; type: biochemical; details: 20 mM; Figure 5D
T1 construct: we made mutations in full-length β1 coexpressed with α1 and γ1 in CCL13 cells; made in house; host or cells: human CCL13 cells, co-transfected; isolated by anti-myc immunoprecipitation
Source text: To test whether mutations that interfered with the binding of glycogen to the GBD also affected inhibition of AMPK by glycogen, we made mutations in full-length β1 coexpressed with α1 and γ1 in CCL13 cells, isolated the complex by immunoprecipitation via the myc tag on α1, and assayed the kinase activity in the presence and absence of glycogen. The activities were adjusted to correct for slight variation in recovery of the α1 subunit assessed by blotting (inset in Figure 3A). […] Because all of these assays were conducted in resuspended immunoprecipitates, the degree of inhibition of the wild-type was < 50%, as discussed in the previous section. […]
Figure 3 Effect of β Subunit Mutations on Inhibition of Recombinant AMPK Complexes by Glycogen (A) Myc-α1, γ1, and β1 with the wild-type sequence or the indicated mutations were expressed in CCL13 cells, immunoprecipitated, and assayed ± bovine liver glycogen (200 mM glucose equivalents); results are mean ± SEM (n = 3). […] (C) Myc-α1, γ1, and β1 with the wild-type sequence or with W100G/W133A mutations were expressed in CCL13 cells, immunoprecipitated using anti-myc (left) or anti-FLAG (right) antibodies, and analyzed by western blotting using anti-myc antibodies (top panels) or a mixture of anti-β1 and -γ1 antibodies (bottom panels). […]

[2] = biological target: T2, rat AMPK-α1 kinase domain (Rattus norvegicus, UniProt P54645, T183D); assay: kinase assay of bacterially expressed α1 kinase domain; type: biochemical; details: bacterially expressed (GST fusion; T172D mutant); data not shown
T2 construct: a bacterially expressed GST fusion of the rat AMPK-α1 kinase domain; GST; made in house; host or cells: bacteria
T2 sequence (P54645 27-279 T183D): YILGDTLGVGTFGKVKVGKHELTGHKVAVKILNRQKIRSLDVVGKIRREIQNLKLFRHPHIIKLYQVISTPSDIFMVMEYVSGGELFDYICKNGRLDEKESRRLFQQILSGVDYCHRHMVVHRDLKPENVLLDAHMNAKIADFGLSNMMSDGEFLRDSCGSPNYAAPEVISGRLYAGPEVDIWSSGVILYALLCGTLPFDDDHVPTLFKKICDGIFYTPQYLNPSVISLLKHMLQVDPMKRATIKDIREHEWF

T1 sequence (P80386 2-270 W100G/W133A): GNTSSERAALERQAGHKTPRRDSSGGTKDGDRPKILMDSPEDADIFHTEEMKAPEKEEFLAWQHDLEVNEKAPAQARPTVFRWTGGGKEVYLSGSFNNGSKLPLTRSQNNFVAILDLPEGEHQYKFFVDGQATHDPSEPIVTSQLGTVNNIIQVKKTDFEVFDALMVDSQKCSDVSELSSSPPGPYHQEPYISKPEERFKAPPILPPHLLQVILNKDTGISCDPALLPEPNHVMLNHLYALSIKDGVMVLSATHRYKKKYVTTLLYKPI
T1 sequence (P54645 whole entry partner): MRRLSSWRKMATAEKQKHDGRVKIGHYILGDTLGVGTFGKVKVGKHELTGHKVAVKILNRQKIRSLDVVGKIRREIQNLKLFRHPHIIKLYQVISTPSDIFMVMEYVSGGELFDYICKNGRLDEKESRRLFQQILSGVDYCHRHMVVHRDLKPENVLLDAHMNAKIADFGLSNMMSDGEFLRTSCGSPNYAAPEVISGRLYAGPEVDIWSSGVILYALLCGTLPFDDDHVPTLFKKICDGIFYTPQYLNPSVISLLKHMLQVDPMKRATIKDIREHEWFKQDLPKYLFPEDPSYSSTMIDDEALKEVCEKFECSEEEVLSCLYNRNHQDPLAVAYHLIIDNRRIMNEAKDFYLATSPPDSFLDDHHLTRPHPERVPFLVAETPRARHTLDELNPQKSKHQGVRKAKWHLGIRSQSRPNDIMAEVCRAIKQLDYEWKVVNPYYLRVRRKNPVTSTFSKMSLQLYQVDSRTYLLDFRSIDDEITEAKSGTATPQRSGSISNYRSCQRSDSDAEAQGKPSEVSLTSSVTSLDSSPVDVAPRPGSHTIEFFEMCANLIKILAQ
T1 sequence (P80385 whole entry partner): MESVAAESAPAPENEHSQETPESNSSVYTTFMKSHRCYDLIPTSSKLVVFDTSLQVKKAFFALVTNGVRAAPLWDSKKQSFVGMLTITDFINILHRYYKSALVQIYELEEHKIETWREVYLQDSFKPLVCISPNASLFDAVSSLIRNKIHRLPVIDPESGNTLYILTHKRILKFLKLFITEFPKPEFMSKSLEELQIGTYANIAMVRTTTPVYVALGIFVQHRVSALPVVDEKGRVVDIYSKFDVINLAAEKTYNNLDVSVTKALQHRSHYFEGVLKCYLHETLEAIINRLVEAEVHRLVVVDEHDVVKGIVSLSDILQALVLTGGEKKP

## OC[C@H]1O[C@H](OC[C@H]2OC(O)[C@H](O)[C@@H](O)[C@@H]2O)[C@H](O)[C@@H](O)[C@@H]1O (some centres unmarked) [isomaltose]
[1]
  inhibition of W100G/W133A mutant: not
[2]
  inhibition of isolated α1 kinase domain: did not inhibit

Source: paper PMC2642990, “The Glycogen-Binding Domain on the AMPK β Subunit Allows the Kinase to Act as a Glycogen Sensor” (Cell Metabolism, 2009)
